Assay: xn = mol fraction of the nth substance listed

Brc1ccccc1 + COCCO
303.15 K, 101.33 kPa
Conditions	viscosity [mPa·s]
x2 = 0.1188	0.997
x2 = 0.219	1.024
x2 = 0.3173	1.06
x2 = 0.4336	1.114
x2 = 0.4974	1.147
x2 = 0.5621	1.179
x2 = 0.7198	1.255
x2 = 0.8018	1.296
x2 = 0.9254	1.352

Nc1cccc(Cl)c1Cl + COCCO
313.15 K, 101 kPa
Conditions	viscosity [mPa·s]
x1 = 0.08697	1.48
x1 = 0.1819	1.74
x1 = 0.2858	2.04
x1 = 0.4001	2.33
x1 = 0.5264	2.63
x1 = 0.6667	2.96
x1 = 0.8236	3.25

Brc1ccccc1 + COc1ccccc1
viscosity [mPa·s], 101 kPa
Conditions	x2 = 0.0996	x2 = 0.1949	x2 = 0.2927	x2 = 0.3925	x2 = 0.4935	x2 = 0.5913	x2 = 0.6919	x2 = 0.7952	x2 = 0.8992
298.15 K	1.084	1.079	1.072	1.059	1.052	1.042	1.032	1.024	1.013
303.15 K	1.017	1.011	1.005	0.9905	0.9826	0.9704	0.9621	0.952	0.9439
308.15 K	0.957	0.9479	0.9392	0.9236	0.9158	0.9055	0.8959	0.8857	0.8768
313.15 K	0.8974	0.8903	0.8784	0.8659	0.8558	0.8442	0.8346	0.8247	0.8135

FB(F)F + COc1ccccc1
viscosity [mPa·s], 101 kPa
Conditions	293.15 K	298.15 K	303.15 K
x1 = 0.00791	1.08	1	0.93
x1 = 0.08794	1.18	1.08	0.99
x1 = 0.1573	1.27	1.16	1.06
x1 = 0.2443	1.62	1.46	1.35
x1 = 0.3211	2.23	2.02	1.81
x1 = 0.3634	2.66	2.39	2.13
x1 = 0.3926	3.04	2.69	2.4
x1 = 0.419	3.46	3.04	2.67
x1 = 0.4457	3.95	3.45	3.04
x1 = 0.4544	4.19	3.62	3.15
x1 = 0.4895	4.98	4.31	3.73

COc1ccccc1O + CS(C)=O
viscosity [mPa·s], 101 kPa
Conditions	x2 = 0.2	x2 = 0.3	x2 = 0.4	x2 = 0.5	x2 = 0.6	x2 = 0.7	x2 = 0.8	x2 = 0.9
298.15 K	10.62	12.4	11.9	9.46	6.91	4.97	3.59	2.66
308.15 K	6.47	7.54	7.38	6.23	4.81	3.67	2.83	2.12
318.15 K	4.35	5.01	4.98	4.4	3.59	2.8	2.2	1.75

O=C[C@H](O)[C@@H](O)[C@H](O)CO + C[N+](C)(C)CCO.[Cl-]
viscosity [mPa·s]
Conditions	x2 = 0.5	x2 = 0.6	x2 = 0.667
303 K, 101 kPa	34000	–	–
313 K, 101 kPa	11900	–	–
313.2 K, 100 kPa	855.5	1450	3450
318.2 K, 100 kPa	565.8	886.5	1886
323 K, 101 kPa	4740	–	–

CC(C)[N+](=O)[O-] + Cc1cc(C)cc(C)c1
293.15 K, 101.33 kPa
Conditions	viscosity [mPa·s]
x1 = 0.0955	0.691
x1 = 0.1983	0.691
x1 = 0.2294	0.69
x1 = 0.4005	0.691
x1 = 0.5048	0.696
x1 = 0.6007	0.701
x1 = 0.7022	0.708
x1 = 0.8014	0.717
x1 = 0.898	0.738

Brc1ccccc1 + Cc1ccc(C)cc1
101 kPa
Conditions	viscosity [mPa·s]
293.15 K, x1 = 0.1123	0.645
293.15 K, x1 = 0.225	0.695
293.15 K, x1 = 0.3321	0.746
293.15 K, x1 = 0.4327	0.795
293.15 K, x1 = 0.5301	0.845
293.15 K, x1 = 0.6412	0.897
293.15 K, x1 = 0.7553	0.95
293.15 K, x1 = 0.9107	1.018
298.15 K, x1 = 0.1121	0.61
298.15 K, x1 = 0.2263	0.658
298.15 K, x1 = 0.3316	0.701
298.15 K, x1 = 0.4646	0.758
298.15 K, x1 = 0.5298	0.785
298.15 K, x1 = 0.6418	0.835
298.15 K, x1 = 0.755	0.895
298.15 K, x1 = 0.9101	0.955
303.15 K, x1 = 0.1154	0.575
303.15 K, x1 = 0.22	0.615
303.15 K, x1 = 0.3355	0.657
303.15 K, x1 = 0.4366	0.7
303.15 K, x1 = 0.5593	0.75
303.15 K, x1 = 0.6816	0.799
303.15 K, x1 = 0.7723	0.835
303.15 K, x1 = 0.9149	0.891
